Assay results as given in patent US20240217983A1, “GPR119 AGONISTS” (Kallyope, Inc., priority 2021, published 2024).
pEC50: −log10 of the molar value. Structures can show the parent of a compound that is named as a salt.

Molecular target: T1, human GPR119 (hGPR119) (Homo sapiens, UniProt Q8TDV5)
T1 construct: expressed in transfected cells
T1 sequence (Q8TDV5 1-335): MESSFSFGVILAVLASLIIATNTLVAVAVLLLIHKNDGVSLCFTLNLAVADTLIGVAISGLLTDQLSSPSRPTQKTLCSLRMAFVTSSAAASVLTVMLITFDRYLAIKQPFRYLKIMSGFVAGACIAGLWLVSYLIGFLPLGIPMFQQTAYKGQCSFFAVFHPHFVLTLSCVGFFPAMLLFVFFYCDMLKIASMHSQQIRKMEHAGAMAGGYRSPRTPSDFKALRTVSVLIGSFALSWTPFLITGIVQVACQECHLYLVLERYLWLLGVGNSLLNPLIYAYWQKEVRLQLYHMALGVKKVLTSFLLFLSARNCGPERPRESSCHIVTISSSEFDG
Experiment: cAMP accumulation assay (Cisbio cAMP Gs dynamic HTRF kit) in CHO-K1 cells stably expressing human GPR119
Type: cell-based
Conditions: 4-parameter fit; for Emax: 1 h, % activity normalized to Max and Min controls; for pEC50: 60 minutes at 37° C.
Procedure, shortened: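 Read-out is HTRF 665/620 nm ratio after 1 h detection at ambient temperature, converted to % activity against positive and negative controls, EC50 and Max activity by 4-parameter fit. Compounds were titrated onto ~10,000 thawed hGPR119-CHO-K1 cells/well for 60 min at 37° C/5% CO2.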

Row | Emax | pEC50 | Compound
1 | ≥ 130% | ≥ 7.00 | O=C(Cc1c(F)cc(OCCCC2CCN(c3ncc(Cl)cn3)CC2)cc1F)N1CCN(C[C@H](O)[C@@H](O)[C@H](O)[C@H](O)CO)CC1 [Example 85, 2-(4-(3-(1-(5-chloropyrimidin-2-yl)piperidin-4-yl)propoxy)-2,6-difluorophenyl)-1-(4-((2S,3R,4R,5R)-2,3,4,5,6-pentahydroxyhexyl)piperazin-1-yl)ethan-1-one formate]
2 | 100 to 130% | ≥ 7.00 | O=C(CCCCS(=O)(=O)O)N1CCOC2(CCN(C(=O)Cc3ccc(OCCCC4CCN(c5ncc(Cl)cn5)CC4)cc3F)C2)C1 (stereo not drawn) [Example 24, 5-(2-(2-(4-(3-(1-(5-chloropyrimidin-2-yl)piperidin-4-yl)propoxy)-2-fluorophenyl)acetyl)-6-oxa-2,9-diazaspiro[4.5]decan-9-yl)-5-oxopentane-1-sulfonic acid]
3 | 100 to 130% | ≥ 7.00 | O=C(Cc1ccc(OCCCC2CCN(c3ncc(Cl)cn3)CC2)cc1F)N1C[C@H]2CCN(C[C@H](O)[C@@H](O)[C@H](O)[C@H](O)CO)[C@H]2C1 [Example 65, 2-(4-(3-(1-(5-chloropyrimidin-2-yl)piperidin-4-yl)propoxy)-2-fluorophenyl)-1-((3aR,6aR)-1-((2S,3R,4R,5R)-2,3,4,5,6-pentahydroxyhexyl)hexahydropyrrolo[3,4-b]pyrrol-5(1H)-yl)ethan-1-one]
4 | 100 to 130% | ≥ 7.00 | O=C(Cc1ccc(OCCCC2CCN(c3ncc(Cl)cn3)CC2)cc1F)N1CC2(C1)OCC2NC[C@H](O)[C@H](O)[C@H](O)CO (stereo partly drawn) [Example 82, 2-(4-(3-(1-(5-chloropyrimidin-2-yl)piperidin-4-yl)propoxy)-2-fluorophenyl)-1-(3-(((2S,3S,4R)-2,3,4,5-tetrahydroxypentyl)amino)-1-oxa-6-azaspiro[3.3]heptan-6-yl)ethan-1-one]
5 | 100 to 130% | 6.00 to 7.00 | O=C(Cc1ccc(OCCC2CC3(CCN(c4ncc(Cl)cn4)CC3)C2)cc1F)N1CCN(C[C@H](O)[C@@H](O)[C@H](O)[C@H](O)CO)CC1 [Example 110, 2-(4-(2-(7-(5-chloropyrimidin-2-yl)-7-azaspiro[3.5]nonan-2-yl)ethoxy)-2-fluorophenyl)-1-(4-((2S,3R,4R,5R)-2,3,4,5,6-pentahydroxyhexyl)piperazin-1-yl)ethan-1-one]
6 | 100 to 130% | 6.00 to 7.00 | O=C(Cc1ccc(OCCCC2CCN(c3ncc(Cl)cn3)CC2)cc1F)N1C[C@H]2CN(C[C@H](O)[C@@H](O)[C@H](O)[C@H](O)CO)[C@H]2C1 [Example 37, 2-(4-(3-(1-(5-chloropyrimidin-2-yl)piperidin-4-yl)propoxy)-2-fluorophenyl)-1-((1R,5R)-6-((2S,3R,4R,5R)-2,3,4,5,6-pentahydroxyhexyl)-3,6-diazabicyclo[3.2.0]heptan-3-yl)ethan-1-one]
7 | 100 to 130% | 6.00 to 7.00 | O=C(Cc1ccc(OCCCC2CCN(c3ncc(Cl)cn3)CC2)cc1F)N1CCC12CN(C[C@H](O)[C@H](O)[C@H](O)CO)C2 [Example 40, 2-(4-(3-(1-(5-chloropyrimidin-2-yl)piperidin-4-yl)propoxy)-2-fluorophenyl)-1-(6-((2S,3S,4R)-2,3,4,5-tetrahydroxypentyl)-1,6-diazaspiro[3.3]heptan-1-yl)ethan-1-one]
8 | 100 to 130% | ≥ 7.00 | CCc1cnc(N2CCC(CCCOc3ccc(CC(=O)N4CCN(C[C@H](O)[C@@H](O)[C@H](O)[C@H](O)CO)CC4)c(F)c3)CC2)nc1 [Example 92, 2-(4-(3-(1-(5-ethylpyrimidin-2-yl)piperidin-4-yl)propoxy)-2-fluorophenyl)-1-(4-((2S,3R,4R,5R)-2,3,4,5,6-pentahydroxyhexyl)piperazin-1-yl)ethan-1-one]
9 | 100 to 130% | 6.00 to 7.00 | O=C(Cc1ccc(OCCCC2CCN(c3ncc(Cl)cn3)CC2)cc1F)N1C[C@H]2CN(C[C@H](O)[C@H](O)[C@H](O)CO)[C@H]2C1 [Example 36, 2-(4-(3-(1-(5-chloropyrimidin-2-yl)piperidin-4-yl)propoxy)-2-fluorophenyl)-1-((1R,5R)-6-((2S,3S,4R)-2,3,4,5-tetrahydroxypentyl)-3,6-diazabicyclo[3.2.0]heptan-3-yl)ethan-1-one]
10 | 100 to 130% | ≥ 7.00 | O=C(Cc1ccc(OCCCC2CCN(c3ncc(Cl)cn3)CC2)cc1F)N1CCC2(CCN2C[C@H](O)[C@@H](O)[C@H](O)[C@H](O)CO)C1 (stereo partly drawn) [Example 31, 2-(4-(3-(1-(5-chloropyrimidin-2-yl)piperidin-4-yl)propoxy)-2-fluorophenyl)-1-(1-((2S,3R,4R,5R)-2,3,4,5,6-pentahydroxyhexyl)-1,6-diazaspiro[3.4]octan-6-yl)ethan-1-one]
11 | 100 to 130% | 6.00 to 7.00 | O=C(Cc1ccc(OCCC2CC(C3CCN(c4ncc(Cl)cn4)CC3)C2)cc1F)N1CCN(C[C@H](O)[C@@H](O)[C@H](O)[C@H](O)CO)CC1 (stereo partly drawn) [Example 115, 2-(4-(2-(3-(1-(5-chloropyrimidin-2-yl)piperidin-4-yl)cyclobutyl)ethoxy)-2-fluorophenyl)-1-(4-((2S,3R,4R,5R)-2,3,4,5,6-pentahydroxyhexyl)piperazin-1-yl)ethan-1-one]
12 | 100 to 130% | < 5.00 | O=C(Cc1ccc(OCCCC2CCN(c3ncc(Cl)cn3)CC2)cc1F)N1CCC12CN(C[C@H](O)[C@@H](O)[C@H](O)[C@H](O)CO)C2 [Example 41, 2-(4-(3-(1-(5-chloropyrimidin-2-yl)piperidin-4-yl)propoxy)-2-fluorophenyl)-1-(6-((2S,3R,4R,5R)-2,3,4,5,6-pentahydroxyhexyl)-1,6-diazaspiro[3.3]heptan-1-yl)ethan-1-one]

Second part, the compound before the results:

Row | Compound | Emax | pEC50
13 | O=C(Cc1ccc(OCCCC2CCN(c3ncc(Cl)cn3)CC2)cc1F)N1CCN(C[C@H](O)[C@H](O)[C@H](O)CO)CC1 [Example 71, 2-(4-(3-(1-(5-chloropyrimidin-2-yl)piperidin-4-yl)propoxy)-2-fluorophenyl)-1-(4-((2S,3S,4R)-2,3,4,5-tetrahydroxypentyl)piperazin-1-yl)ethan-1-one] | 100 to 130% | ≥ 7.00
14 | O=C(CCCCS(=O)(=O)O)N1CC2CCC1CN2C(=O)Cc1ccc(OCCCC2CCN(c3ncc(Cl)cn3)CC2)cc1F (stereo not drawn) [Example 14, 5-(5-(2-(4-(3-(1-(5-chloropyrimidin-2-yl)piperidin-4-yl)propoxy)-2-fluorophenyl)acetyl)-2,5-diazabicyclo[2.2.2]octan-2-yl)-5-oxopentane-1-sulfonic acid] | 100 to 130% | ≥ 7.00
15 | O=C(CCCCS(=O)(=O)O)N1CC2CC(C1)N2C(=O)Cc1ccc(OCCCC2CCN(c3ncc(Cl)cn3)CC2)cc1F [Example 16, 5-(6-(2-(4-(3-(1-(5-chloropyrimidin-2-yl)piperidin-4-yl)propoxy)-2-fluorophenyl)acetyl)-3,6-diazabicyclo[3.1.1]heptan-3-yl)-5-oxopentane-1-sulfonic acid] | 100 to 130% | ≥ 7.00
16 | O=C(Cc1ccc(OCCCC2CCN(c3ncc(Cl)cn3)CC2)cc1F)N1CC2(C1)N(C(=O)CCCCS(=O)(=O)O)CC2(F)F [Example 19, 5-(6-(2-(4-(3-(1-(5-chloropyrimidin-2-yl)piperidin-4-yl)propoxy)-2-fluorophenyl)acetyl)-3,3-difluoro-1,6-diazaspiro[3.3]heptan-1-yl)-5-oxopentane-1-sulfonic acid] | 100 to 130% | ≥ 7.00
17 | O=C(Cc1ccc(OCCCC2CCN(c3ncc(Cl)cn3)CC2)cc1F)N1CCC2(C1)CN(C(=O)CCCCS(=O)(=O)O)C2 [Example 2, 5-(6-(2-(4-(3-(1-(5-chloropyrimidin-2-yl)piperidin-4-yl)propoxy)-2-fluorophenyl)acetyl)-2,6-diazaspiro[3.4]octan-2-yl)-5-oxopentane-1-sulfonic acid] | ≥ 130% | ≥ 7.00
18 | COCc1cnc(N2CCC(CCCCOc3cc(F)c(CC(=O)N4CCN(C[C@H](O)[C@@H](O)[C@H](O)[C@H](O)CO)CC4)c(F)c3)CC2)nc1 [Example 101, 2-(2,6-difluoro-4-(4-(1-(5-(methoxymethyl)pyrimidin-2-yl)piperidin-4-yl)butoxy)phenyl)-1-(4-((2S,3R,4R,5R)-2,3,4,5,6-pentahydroxyhexyl)piperazin-1-yl)ethan-1-one] | 100 to 130% | ≥ 7.00
19 | O=C(CCCCS(=O)(=O)O)N1CCC2(CCN(C(=O)Cc3ccc(OCCCC4CCN(c5ncc(Cl)cn5)CC4)cc3F)C2)C1 (stereo not drawn) [Example 1, 5-(7-(2-(4-(3-(1-(5-chloropyrimidin-2-yl)piperidin-4-yl)propoxy)-2-fluorophenyl)acetyl)-2,7-diazaspiro[4.4]nonan-2-yl)-5-oxopentane-1-sulfonic acid] | 100 to 130% | ≥ 7.00
20 | O=C(Cc1ccc(OCCCC2CCN(c3ncc(Cl)cn3)CC2)cc1F)N1C[C@H]2CN(C(=O)CCCCS(=O)(=O)O)[C@H]2C1 [Example 7, 5-((1S,5R)-3-(2-(4-(3-(1-(5-chloropyrimidin-2-yl)piperidin-4-yl)propoxy)-2-fluorophenyl)acetyl)-3,6-diazabicyclo[3.2.0]heptan-6-yl)-5-oxopentane-1-sulfonic acid] | 100 to 130% | 6.00 to 7.00
21 | O=C(Cc1ccc(OCCCC2CCN(c3ncc(Cl)cn3)CC2)cc1F)N1CC2(CCN2C(=O)CCCCS(=O)(=O)O)C1 [Example 5, 5-(6-(2-(4-(3-(1-(5-chloropyrimidin-2-yl)piperidin-4-yl)propoxy)-2-fluorophenyl)acetyl)-1,6-diazaspiro[3.3]heptan-1-yl)-5-oxopentane-1-sulfonic acid] | 100 to 130% | ≥ 7.00
